For data set [1], the system named is S. Aureus. The conditions noted are these: averaged between the high and low of the MIC; cited from earlier work.
Data set [2] concerns E. Coli. The conditions noted are these: averaged between the high and low of the MIC; cited from earlier work.
Data set [3] has as its system S. Epidermidis. The conditions noted are these: averaged between the high and low of the MIC; cited from earlier work.
The conditions of data set [4]: cited from earlier work.
The nature of data set [5]: Thermogravimetric analysis of the APIs. It counts as physicochemical. The note with it: ramp heated to 140° C. and held for 10 minutes. As to the method:
Thermogravimetric analysis was performed on the APIs used in compositions. Each drug was ramp heated to 140° C. and held at that temperature for 10 minutes. For all compositions, time spent melt-mixing is 8-10 minutes. The decomposition of the API in that time was less than 0.5% for each drug, meaning that the API are stable during processing. For Rifampin, the change in mass was 0.292%; for Minocycline HCl the change in mass was 0.421%; and for minocycline Free Base the change in mass was 0.137%.

The subject of data set [6] is A. Baumanii. The conditions noted are these: averaged between the high and low of the MIC; cited from earlier work.
The nature of data set [7]: Stability (discoloration) of the two forms of minocycline.

Counter-ions that a name gives are not always drawn.

In the case of `CO[C@H]1/C=C/O[C@@]2(C)Oc3c(C)c(O)c4c(O)c(c(/C=N/N5CCN(C)CC5)c(O)c4c3C2=O)NC(=O)/C(C)=C\C=C\[C@H](C)[C@H](O)[C@@H](C)[C@@H](O)[C@@H](C)[C@H](OC(C)=O)[C@@H]1C` [Rifampicin], the MIC in data set [1] is on record as 0.0095 micrograms per ml; in data set [2] it was 10 micrograms per ml; in data set [3] it was 0.1 micrograms per ml; in data set [6], 6 micrograms per ml. The solubility in water entry in data set [4] was “low solubility in water”. The “change in mass (decomposition of the API)” value (“change in mass” for short) in data set [5] was 0.292%.
As for `CN(C)c1ccc(O)c2c1C[C@H]1C[C@H]3[C@H](N(C)C)C(=O)C(C(N)=O)=C(O)[C@@]3(O)C(=O)C1=C2O` [minocycline Free Base], the discoloration process entry in data set [7] (dry powder form exposed to air) was “not observed at all”. In addition, the “stability (discoloration) over time” value in data set [7] (stored in distilled water and formulated in compositions) is reported as “the drug oxidizes with the passage of time”. Also, in data set [5], the “change in mass” value turned out to be 0.137%.
Regarding `CN(C)c1ccc(O)c2c1C[C@H]1C[C@H]3[C@H](N(C)C)C(O)=C(C(N)=O)C(=O)[C@@]3(O)C(O)=C1C2=O` [Minocycline HCl], the “change in mass” value in data set [5] is reported as 0.421%.

Source of the values: patent US20230149603A1, “DRUG-RELEASING POLYMER COMPOSITION AND DEVICE” (Novaflux Inc., priority 2021, published 2023).
